Data from patent US7338778B2, “Luminescent method for determining cell oxygen consumption” (Becton, Dickinson and Company, priority 1991, dated 2008).
In brackets after ≈: the same amount, converted by molar mass.

How the values were obtained:
Type in all cases: cell-based
E. coli (ATCC #25922) [1] = assay: Effect of antibiotics on E. coli, Ru(DPP)3Cl2 indicator tray (Example 8); settings: for Relative Fluorescence at 4 hrs.: 1×10^7 CFU/ml, 37° C.
Protocol: (§1) A 0.5 McFarland suspension of E. coli (ATCC #25922) in Broth A (see Example 1) was prepared using an A-Just nephelometer. […] The trays were incubated at 37° C. for 4 hours and their fluorescence measured in a Fluoroskan II fluorometer.
The fluorescent compound tris 4,7-diphenyl-1,10-phenanthroline ruthenium (II) chloride (Ru(DPP)3Cl2) was synthesized using the procedure of Watts and Crosby (J. Am.Chem. Soc. 93, 3184(1971)). A total of 3.6 mg of the compound was dissolved in 2.0 ml dimethyl sulfoxide (D-5879, Sigma Chemical, St. Louis, Mo.) and the resultant solution was then added slowly, with stirring, to 1300 ml silicone rubber forming solution (Water Based Emulsion #3-5024, Dow Corning, Midland, Mich.). A 35 microliter aliquot of the mixture was subsequently dispensed into each well of a 96 well, flat bottom, white microtiter tray (#011-010-7901, Dynatech, Chantilly, Va.), and the system was subsequently cured overnight in a low humidity (less than 25% RH), 60° C. incubator. After curing, the trays were washed by either soaking or by filling and emptying each well several times with each of the following reagents; a) absolute ethanol, b) 0.1 M phosphate buffer pH 7.2, c) hot distilled water (about 45° C.) and d) ambient temperature distilled water.

E. coli (ATCC #25922) [2] = assay: Effect of antibiotics on oxygen consumption of E. coli, Ru(BiPy)3Cl2 indicator tray (Example 9); settings: for Relative Fluorescence at 4 hrs.: 1×10^7 CFU/ml, 37° C.
Protocol: A 96 well Microtiter tray was produced essentially as in Example 1, except that tris-(2,2′ bipyridyl)-ruthenium (II) chloride hexahydrate (Aldrich Chemical Company, Milwaukee, Wis.) [Ru(BiPy)3Cl2] was substituted for Ru(DPP)3Cl2 in the silicone mixture. A second tray containing 9,10-diphenyl anthracene (DPA) was also prepared. All wells were charged with 150 ul of 1×10^7 CFU/ml E. coli (ATCC #25922) in broth. Table 3 lists the results at 0, 1, 2, 3, and 4 hours after addition of organisms.
as §1

E. coli (ATCC #11775) = assay: Effect of open and closed systems on oxygen measurements with cefuroxime (Example 11); settings: 4 and 8 ug/ml, 5 hours, 37° C.
Protocol: A 96 well indicator microtiter tray was produced substantially as in Example 1. Duplicate wells in the tray were supplemented with the antibiotic cefuroxime in the concentration range of 0.25 to 32 ug/ml. One hundred and fifty microliters of a suspension of E. coli (ATCC #11775) was added to the wells to yield about 3×10^7 CFU/ml. One of each duplicate well was overlaid with mineral oil to inhibit diffusion of oxygen into the wells, the other duplicate was left open to the air. […] This difference is due, presumably to the time lag needed for the antibiotic to affect the organism; it is believed that during this time the oxygen is brought to an artificially low level by the ongoing metabolic activity of the organisms.

E. coli (ATCC #25922) [3] = assay: Visual reading of indicator tray fluorescence without a fluorometer (Example 13); settings: E. coli #25922, 1×10^7 CFU/ml, 4 hours at 37° C., UV transilluminator
Protocol: (§2) The trays were incubated for 4 hours at 37° C. and subsequently placed on the stage of an ultraviolet transilluminator (#TX-365A, Spectronics Corp., Westbury, N.Y.) which served as an excitation source.

[4] = test system: Ps. aeruginosa (BDMS Culture collection #N111); assay: as above; settings: 1×10^7 CFU/ml, 4 hours at 37° C., UV transilluminator
Protocol: as §2

[5] = test system: Ps. aeruginosa (BDMS Culture collection #N111); assay: Overnight microdilution antimicrobial susceptibility test (reference MIC); settings: Pseudomonas aeruginosa
E. coli (ATCC #25922) [6] = assay: as above; settings: Escherichia coli, ATCC25922; E. coli #25922, overnight microdilution
E. coli (ATCC #25922) [7] = assay: Effect of antibiotics on oxygen consumption of E. coli, DPA indicator tray (Example 10); settings: for Relative Fluorescence at 4 hrs.: 1×10^7 CFU/ml, 37° C.
[8] = all concentrations (0.5 to 8 ug/ml), 4 hours

MIC Visual (lowest concentration of antibiotic to significantly lower the fluorescent emissions) (E. coli (ATCC #25922) [3]): 16 µg/mL
MIC Visual (lowest concentration of antibiotic to significantly lower the fluorescent emissions) [4]: >64 µg/mL
MIC [5]: > 64 µg/mL
MIC (E. coli (ATCC #25922) [6]): 8 µg/mL (≈ 18.9 µM)
SMILES: CO/N=C(\C(=O)N[C@@H]1C(=O)N2C(C(=O)O)=C(COC(N)=O)CS[C@H]12)c1ccco1 [Cefuroxime, cefuroxime]
susceptibility of E. coli by fluorescence counts (E. coli (ATCC #25922) [1]; [8]): resistant
Relative Fluorescence at 4 hrs. (E. coli (ATCC #25922) [1]; antibiotic 0.5 ug/mL): 7902
Relative Fluorescence at 4 hrs. (E. coli (ATCC #25922) [1]; antibiotic 1 ug/mL): 7983
Relative Fluorescence at 4 hrs. (E. coli (ATCC #25922) [1]; antibiotic 2 ug/mL): 7161
Relative Fluorescence at 4 hrs. (E. coli (ATCC #25922) [1]; antibiotic 4 ug/mL): 7598
Relative Fluorescence at 4 hrs. (E. coli (ATCC #25922) [1]; antibiotic 8 ug/mL): 6469
susceptibility of E. coli by fluorescence counts (E. coli (ATCC #25922) [2]; [8]): resistant
Relative Fluorescence at 4 hrs. (E. coli (ATCC #25922) [2]; antibiotic 0.5 ug/mL): 1155
Relative Fluorescence at 4 hrs. (E. coli (ATCC #25922) [2]; antibiotic 1 ug/mL): 1539
Relative Fluorescence at 4 hrs. (E. coli (ATCC #25922) [2]; antibiotic 2 ug/mL): 1183
Relative Fluorescence at 4 hrs. (E. coli (ATCC #25922) [2]; antibiotic 4 ug/mL): 1170
Relative Fluorescence at 4 hrs. (E. coli (ATCC #25922) [2]; antibiotic 8 ug/mL): 1194
effect on oxygen consumption by fluorescence as percent of growth control (E. coli (ATCC #11775); closed system overlaid with mineral oil): did not show an effect on oxygen consumption
susceptibility of organism by fluorescence as percent of growth control (E. coli (ATCC #11775); wells with no mineral oil (open to air)): sensitive
susceptibility of E. coli by fluorescence counts (E. coli (ATCC #25922) [7]; [8]): resistant
Relative Fluorescence at 4 hrs. (E. coli (ATCC #25922) [7]; antibiotic 0.5 ug/mL): 183
Relative Fluorescence at 4 hrs. (E. coli (ATCC #25922) [7]; antibiotic 1 ug/mL): 197
Relative Fluorescence at 4 hrs. (E. coli (ATCC #25922) [7]; antibiotic 2 ug/mL): 195
Relative Fluorescence at 4 hrs. (E. coli (ATCC #25922) [7]; antibiotic 4 ug/mL): 160
Relative Fluorescence at 4 hrs. (E. coli (ATCC #25922) [7]; antibiotic 8 ug/mL): 161
